In patent US20240391882A1 (Mirati Therapeutics, Inc., priority 2023, published 2024):

Key:
Type in all cases: cell-based
[1] = system: T47D (PI3Kα H1047R mutant) cells; assay: Cell viability (CellTiter-Glo 2.0) in T47D cells; settings: Homo sapiens, T47D, 72 h, approximately 72 hours
Method: (§1) This Example illustrates that representative compounds of the invention decrease the viability of cells.
(§2) The ability of a compound of Formula (I) to decrease the viability of cells was measured using CellTiter-Glo 2.0 (CTG) Luminescent Cell Viability Assay (#G9241) obtained from Promega (Madison, WI).
(§3) To prepare assay plates for viability assays, cells were trypsinized, resuspended in fresh media, and viable cells were counted utilizing trypan blue exclusion. T47D, SKBR3, or MKN1 cells were seeded at 1000 cells in 30 μl per well in a solid white flat bottom 384 cell culture plate (Perkin Elmer #6007680) and incubated at 37° C. overnight.
(§4) Assay day 1, cells were dosed using an Echo Liquid Handler (Beckman Coulter) with compounds at a 10 μm starting concentration and serially diluted (1:4) for a total of 10 concentrations. Cells were incubated for approximately 72 hours with the compounds (solubilized in DMSO) at 37° C. After 72 hours of treatment, cell plates were equilibrated to room temperature before adding 15 μl of CTG to each well, plates were then covered in aluminum foil to protect from light, incubated at room temperature for 30 minutes on a microtiter plate shaker, and luminescence readings were collected using a CLARIOstar microplate reader (BMG Labtech, Germany). Percent of vehicle control values were plotted as log(inhibitor) vs. response—Variable slope (four parameters) for curve fitting and IC50 values were determined using XLfit.

[2] = system: SKBR3 (PI3Kα wild type) cells; assay: Cell viability (CellTiter-Glo 2.0) in SKBR3 cells; settings: Homo sapiens, SK-BR-3; SKBR3 (PI3Kα wild type) cells, approximately 72 hours, CellTiter-Glo 2.0; read-out: SKBR3 (WT) Viability IC50
Method: as §1, §2, §3, §4

[3] = system: pAKT in T47D (PI3Kα H1047R mutant) cells; assay: Inhibition of pAKT (alphaLISA Surefire Ultra AKT 1/2/3 pS473) in T47D cells; settings: Homo sapiens; T47D (PI3Kα H1047R mutant) cells, 24 hr compound incubation, alphaLISA pS473; read-out: T47D (H1047R) pAKT 24 hr (IC50)
Method: The ability of a compound of Formula (I) to inhibit the formation of pAKT was measured using alphaLISA Surefire Ultra AKT 1/2/3 (pS473) Assay Kit (#ALSU-PAKT-B50K) was obtained from Perkin Elmer (Waltham, MA).
To prepare assay plates for pAKT alphaLISA assays, cells were trypsinized, resuspended in fresh media, and viable cells were counted utilizing trypan blue exclusion. Prior to seeding, cells were washed with PBS and resuspended in HBSS (Gibco, #14025092). T47D (12,000/w), SKBR3 (12,000/w), or MKN1 (24,000/w) cells were seeded at 12 μl per well in a solid white flat bottom 384 cell culture plate (Perkin Elmer #6007680).
Immediately after seeding, cells were dosed using an Echo Liquid Handler (Beckman Coulter) with compounds at a 10.4 μm starting concentration and serially diluted (1:4) for a total of 10 concentrations. 14 vehicle (DMSO) and 14 positive control (Alpelisib @3.125 μm) wells were included on each assay plate. Cells were incubated with the compounds (solubilized in DMSO) for approximately 24 hours at 37° C. After 24 hours of treatment, cells were lysed with 3 μl of the 5× lysis buffer (provided and incubated at room temperature for 15 min on a microtiter plate shaker). Once cells were sufficiently lysed, 7.5 μl of the acceptor bead mix (made using the manufacturers recommended dilutions) was added to each well and left on the microtiter plate shaker for 1 min prior to incubating plates at room temperature for 1 hour, in the absence of light. After 1 hour of incubation with the acceptor bead mix, 7.5 μl of the donor bead mix (made using the manufacturers recommended dilutions) was added to each well and left on the microtiter plate shaker for 1 min prior to incubating plates at room temperature overnight in the absence of light. Plates were then imaged the following day using a CLARIOstar microplate reader (BMG Labtech, Germany).
Percent of control values were calculated by subtracting the average signal from the positive control (alpelisib) treated wells from all treated wells (including DMSO control wells) and then divided by the average signal from the vehicle DMSO treated control wells. Percent of vehicle control values were plotted as log(inhibitor) vs. response—Variable slope (four parameters) for curve fitting and IC50 values were determined using XLfit.

Row | Compound | IC50 [1] | IC50 [2] | IC50 [3]
1 | Cc1cc([C@@H](C)Nc2ccc(Cl)nc2C(=O)O)c2nc(N3CC4CC3C(F)(F)C4)c(C#N)nc2c1 (single isomer, unassigned) [Example 10] | 71.6 nM | > 10000 nM | –
2 | Cc1cc([C@@H](C)Nc2ccc(Cl)nc2C(=O)O)c2nc(N3CC4CC3C(F)(F)C4)c(C#N)nc2c1 (single isomer, unassigned) [Example 11] | 64 nM | > 10000 nM | –
3 | CO[C@H]1CCN(c2nc3c([C@@H](C)Nc4ccccc4C(=O)O)cc(C)cc3nc2C#N)C1 (single isomer, unassigned) [Example 72A] | 298 nM | > 10000 nM | –
4 | CO[C@@H]1CCN(c2nc3c([C@@H](C)Nc4ccccc4C(=O)O)cc(C)cc3nc2C#N)C1 (single isomer, unassigned) [Example 72B] | 96.3 nM | > 10000 nM | –
5 | CO[C@@H]1CCN(c2nc3c([C@@H](C)Nc4ccc(Cl)nc4C(=O)O)cc(C)cc3nc2C#N)C1 (single isomer, unassigned) [Example 110A] | 298 nM | > 10000 nM | –
6 | CO[C@H]1CCN(c2nc3c([C@@H](C)Nc4ccc(Cl)nc4C(=O)O)cc(C)cc3nc2C#N)C1 (single isomer, unassigned) [Example 110B] | 96.3 nM | > 10000 nM | –
7 | Cc1cc([C@@H](C)Nc2ccc(Cl)nc2C(=O)O)c2nc(N3CCCC(F)(F)C3)c(C#N)nc2c1 [Example 12, (R)-6-chloro-3-((1-(2-cyano-3-(3,3-difluoropiperidin-1-yl)-7-methylquinoxalin-5-yl)ethyl)amino)picolinic acid] | 160 nM | > 10000 nM | –
8 | Cc1cc([C@@H](C)Nc2ccc(Cl)nc2C(=O)O)c2nc(NCC3(C(F)(F)F)CC3)c(C#N)nc2c1 [Example 15, (R)-6-chloro-3-((1-(2-cyano-7-methyl-3-(((1-(trifluoromethyl)cyclopropyl)methyl)amino)quinoxalin-5-yl)ethyl)amino)picolinic acid] | 120 nM | > 10000 nM | –
9 | Cc1cc([C@@H](C)Nc2scnc2C(=O)O)c2nc(N3CCC(F)(F)CC3)c(C#N)nc2c1 [Example 39, (R)-5-((1-(2-cyano-3-(4,4-difluoropiperidin-1-yl)-7-methylquinoxalin-5-yl)ethyl)amino)thiazole-4-carboxylic acid] | 2680 nM | 6230 nM | –
10 | Cc1cc([C@@H](C)Nc2ccc(Cl)nc2C(=O)O)c2nc(N3CCC(F)(F)CC3)c(C3CC3)nc2c1 [Example 48, (R)-6-chloro-3-((1-(2-cyclopropyl-3-(4,4-difluoropiperidin-1-yl)-7-methylquinoxalin-5-yl)ethyl)amino)picolinic acid] | 95.3 nM | > 10000 nM | –
11 | Cc1cc([C@@H](C)Nc2ccccc2C(=O)O)c2nc(N3CC4(COC4)C3)c(C#N)nc2c1 [Example 59, (R)-2-((1-(2-cyano-7-methyl-3-(2-oxa-6-azaspiro[3.3]heptan-6-yl)quinoxalin-5-yl)ethyl)amino)benzoic acid] | 140 nM | > 10000 nM | –
12 | Cc1cc([C@@H](C)Nc2ccc(Cl)nc2C(=O)O)c2nc(N3CC4(COC4)C3)c(C#N)nc2c1 [Example 60, (R)-6-chloro-3-((1-(2-cyano-7-methyl-3-(2-oxa-6-azaspiro[3.3]heptan-6-yl)quinoxalin-5-yl)ethyl)amino)picolinic acid] | 21.1 nM | > 10000 nM | –
13 | Cc1cc([C@@H](C)Nc2ccccc2C(=O)O)c2nc(N3CCC(C)(C(F)(F)F)CC3)c(C#N)nc2c1 [Example 65, (R)-2-((1-(2-cyano-7-methyl-3-(4-methyl-4-(trifluoromethyl)piperidin-1-yl)quinoxalin-5-yl)ethyl)amino)benzoic acid] | 456 nM | > 10000 nM | –
14 | Cc1cc([C@@H](C)Nc2ccc(Cl)nc2C(=O)O)c2nc(N3CCC(C)(C(F)(F)F)CC3)c(C#N)nc2c1 [Example 66, (R)-6-chloro-3-((1-(2-cyano-7-methyl-3-(4-methyl-4-(trifluoromethyl)piperidin-1-yl)quinoxalin-5-yl)ethyl)amino)picolinic acid] | 78 nM | 7680 nM | –
15 | Cc1cc([C@@H](C)Nc2ccccc2C(=O)O)c2nc(N3CCC(F)(F)C3)c(C#N)nc2c1 [Example 71, (R)-2-((1-(2-cyano-3-(3,3-difluoropyrrolidin-1-yl)-7-methylquinoxalin-5-yl)ethyl)amino)benzoic acid] | 276 nM | > 10000 nM | –
16 | Cc1cc([C@@H](C)Nc2ccc(Cl)nc2C(=O)O)c2nc(NCC3(C)CC3(F)F)c(C#N)nc2c1 (stereo partly drawn) [Example 74, 6-chloro-3-(((1R)-1-(2-cyano-3-(((2,2-difluoro-1-methylcyclopropyl)methyl)amino)-7-methylquinoxalin-5-yl)ethyl)amino)picolinic acid] | 95 nM | > 10000 nM | –
17 | Cc1cc([C@@H](C)Nc2ccccc2C(=O)O)c2nc(NC3CC(F)(F)C3)c(C#N)nc2c1 [Example 76, (R)-2-((1-(2-cyano-3-((3,3-difluorocyclobutyl)amino)-7-methylquinoxalin-5-yl)ethyl)amino)benzoic acid] | 324 nM | > 10000 nM | –
18 | Cc1cc([C@@H](C)Nc2ccc(Cl)nc2C(=O)O)c2nc(NC3CC(F)(F)C3)c(C#N)nc2c1 [Example 77, (R)-6-chloro-3-((1-(2-cyano-3-((3,3-difluorocyclobutyl)amino)-7-methylquinoxalin-5-yl)ethyl)amino)picolinic acid] | 77 nM | 8610 nM | –
19 | Cc1cc([C@@H](C)Nc2ccc(Cl)nc2C(=O)O)c2nc(N3C[C@H]4C[C@@H]3CO4)c(C#N)nc2c1 [Example 174, 3-(((R)-1-(3-((1R,4R)-2-oxa-5-azabicyclo[2.2.1]heptan-5-yl)-2-cyano-7-methylquinoxalin-5-yl)ethyl)amino)-6-chloropicolinic acid] | 36.6 nM | – | 4.4 nM
20 | Cc1cc([C@@H](C)Nc2ccc(Cl)nc2C(=O)O)c2nc(N3CC[C@H](F)C3)c(C#N)nc2c1 [Example 176, 6-chloro-3-(((R)-1-(2-cyano-3-((S)-3-fluoropyrrolidin-1-yl)-7-methylquinoxalin-5-yl)ethyl)amino)picolinic acid] | 34.5 nM | – | 1.7 nM
21 | Cc1cc([C@@H](C)Nc2ccc(Cl)nc2C(=O)O)c2nc(N3CC[C@@H](F)C3)c(C#N)nc2c1 [Example 177, 6-chloro-3-(((R)-1-(2-cyano-3-((R)-3-fluoropyrrolidin-1-yl)-7-methylquinoxalin-5-yl)ethyl)amino)picolinic acid] | 19.4 nM | – | 0.5 nM
22 | Cc1cc([C@@H](C)Nc2ccc(Cl)nc2C(=O)O)c2nc(N3C[C@H](F)[C@@H](F)C3)c(C#N)nc2c1 [Example 178, 6-chloro-3-(((R)-1-(2-cyano-3-((3S,4S)-3,4-difluoropyrrolidin-1-yl)-7-methylquinoxalin-5-yl)ethyl)amino)picolinic acid] | 24.4 nM | – | 0.5 nM
23 | Cc1cc([C@@H](C)Nc2ccc(Cl)nc2C(=O)O)c2nc(N3CCN(c4ccc(C(F)(F)F)cn4)CC3)c(C#N)nc2c1 [Example 179, (R)-6-chloro-3-((1-(2-cyano-7-methyl-3-(4-(5-(trifluoromethyl)pyridin-2-yl)piperazin-1-yl)quinoxalin-5-yl)ethyl)amino)picolinic acid] | 77.3 nM | – | 3.9 nM
24 | Cc1cc([C@@H](C)Nc2ccc(Cl)nc2C(=O)O)c2nc(N3CCO[C@@H](C)C3)c(C#N)nc2c1 [Example 260, 6-chloro-3-(((R)-1-(2-cyano-7-methyl-3-((S)-2-methylmorpholino)quinoxalin-5-yl)ethyl)amino)picolinic acid] | 73.8 nM | – | 1.9 nM
